Laboratory results from paper PMC9693575, “Isopropyl Amino Acid Esters Ionic Liquids as Vehicles for Non-Steroidal Anti-Inflammatory Drugs in Potential Topical Drug Delivery Systems with Antimicrobial Activity” (International Journal of Molecular Sciences, 2022).

What was measured:
[1] = n-octanol-water partition coefficient (logP), shake flask method; type: physicochemical; details: n-octanol-water, shake flask; read-out: LogP
Escherichia coli = experiment: Disc diffusion antimicrobial susceptibility test, Escherichia coli; type: cell-based; set-up: key to Inhibition diameter: -: no growth of the organism; details: for zone of inhibition at 400000 µg/mL: solution transferred to disc 400 mg cm^−3; for zone of inhibition at 600000 µg/mL: solution transferred to disc 600 mg cm^−3
Experimental: (§1) The plates were incubated for 24 h at 37 °C.

[2] = system: Staphylococcus epidermidis; experiment: Disc diffusion antimicrobial susceptibility test, Staphylococcus epidermidis; type: cell-based; set-up: key to Inhibition diameter: -: no growth of the organism
Experimental: as §1

[3] = pKa / pKB by potentiometric acid-base titration and formation constant log(KS); details: calculated from pKA of acid and pKB of base
Experimental: Determination of formation constant pKs
Zabrze, Poland). For the measurement of pKA acids, 0.1 M NaOH was used. In order to
ester hydrochloride, HCl aqueous solution, was added in an amount that allowed reach-
After that, an acid-base titration was made out by adding dropwise 5 mM

[4] = Thermogravimetric analysis (thermal stability); details: air atmosphere, 10 °C min−1; for TDTGmax, maximum decomposition temperature: DTG; for TTGonset, the onset of the thermal degradation: TG
Method in brief: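 Samples of 5–8 mg heated in Al2O3 crucibles under air (25 cm3 min−1) with nitrogen flow (10 cm3 min−1). Start of thermal degradation taken as the onset of the TG curve in the first decomposition phase.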

[5] = Solubility in water and phosphate buffers; details: for Solubility in Water, as active substance: deionized water, 25 °C; for Solubility in Water, as active substance / Solubility in Phosphate Buffer pH = 5.4, as active substance / Solubility in Phosphate Buffer pH = 7.4, as active substance: AS = unmodified acid; for Solubility in Phosphate Buffer pH = 5.4, as active substance: pH 5.4, 25 °C; for Solubility in Phosphate Buffer pH = 7.4, as active substance: pH 7.4, 25 °C
Excerpt: This study aims to compare the influence of amino acid structure on the physicochemical properties of NSAID salts with the isopropyl ester of amino acids.

Micrococcus Luteus = experiment: Disc diffusion antimicrobial susceptibility test, Micrococcus luteus; type: cell-based; set-up: key to Inhibition diameter: -: no growth of the organism; details: for zone of inhibition at 600000 µg/mL: solution transferred to disc 600 mg cm^−3; for zone of inhibition at 800000 µg/mL: solution transferred to disc 800 mg cm^−3
[6] = Solubility in organic solvents (modified Vogel's method); details: 25 °C
[7] = Escherichia coli, 24 h, read-out: Inhibition diameter
[8] = solution transferred to disc 25 mg cm^−3
[9] = solution transferred to disc 50 mg cm^−3
[10] = solution transferred to disc 100 mg cm^−3
[11] = solution transferred to disc 200 mg cm^−3
[12] = solution transferred to disc 400 mg cm^−3
[13] = Micrococcus luteus, 24 h, solution transferred to disc 100 mg cm^−3, read-out: Inhibition diameter
[14] = Micrococcus luteus, 24 h, solution transferred to disc 200 mg cm^−3, read-out: Inhibition diameter
[15] = Micrococcus luteus, 24 h, solution transferred to disc 400 mg cm^−3, read-out: Inhibition diameter
[16] = Micrococcus luteus, 24 h, read-out: Inhibition diameter
[17] = Escherichia coli, 24 h, solution transferred to disc 200 mg cm^−3, read-out: Inhibition diameter
[18] = Staphylococcus epidermidis, 24 h, solution transferred to disc 600 mg cm^−3, read-out: Inhibition diameter
[19] = Staphylococcus epidermidis, 24 h, solution transferred to disc 800 mg cm^−3, read-out: Inhibition diameter

Row | Structure (SMILES) | logP [1] | zone of inhibition at 400000 µg/mL (Escherichia coli; [7]) [mm] | zone of inhibition at 600000 µg/mL (Escherichia coli; [7]) [mm] | Inhibition diameter (Escherichia coli; [8]) | Inhibition diameter (Escherichia coli; [9]) | Inhibition diameter [2, 8] | Inhibition diameter [2, 9] | Inhibition diameter [2, 10] | Log(KS) formation constant [3] | TDTGmax, maximum decomposition temperature [4] [°C] | TTGonset, the onset of the thermal degradation [4] [°C] | Solubility in Water, as active substance [5] [gAS dm^−3] | Solubility in Phosphate Buffer pH = 5.4, as active substance [5] [gAS dm^−3] | solubility thermodynamic ([5]; pH 5.4, aqueous buffer) [mg/mL] | Solubility in Phosphate Buffer pH = 7.4, as active substance [5] [gAS dm^−3] | solubility thermodynamic ([5]; pH 7.4, aqueous buffer) [mg/mL] | solubility thermodynamic ([5]; water) [mg/mL] | zone of inhibition at 600000 µg/mL (Micrococcus Luteus; [16]) [mm] | zone of inhibition at 800000 µg/mL (Micrococcus Luteus; [16]) [mm] | Solubility in Chloroform (39.1) [6] | further results
1 | CC(C)OC(=O)[C@@H](N)[C@@H](C)O.O=C(O)c1ccccc1O [[L-ThrOiPr][SA], L-threonine isopropyl ester salicylate] | 1.55 ± 0.021 | 7.3 ± 0.2 | 9.3 ± 0.4 | - | - | - | - | - | 7.94 | 191.4 | 127.2 | 17.925 ± 0.241 | 13.978 ± 0.018 | 30.189 ± 0.018 | 18.777 ± 0.125 | 40.76 ± 0.125 | 38.71 ± 0.241 | 8.7 ± 0.5 | 10.2 ± 0.7 | ○ (soluble >100 mg cm^−3) | Inhibition diameter (Escherichia coli; [10]): -; Inhibition diameter (Escherichia coli; [11]): -; Inhibition diameter [2, 11]: -; Inhibition diameter [2, 12]: -; Inhibition diameter ([2]; solution transferred to disc 600 mg cm^−3): -; Inhibition diameter ([2]; solution transferred to disc 800 mg cm^−3): -; Inhibition diameter ([2]; solution transferred to disc 1000 mg cm^−3): -; concentrations at which the antimicrobial effect was observed (Micrococcus Luteus; M. Luteus): in all tested concentration ranges; zone of inhibition at 25000 µg/mL (Micrococcus Luteus; Micrococcus luteus, 24 h, solution transferred to disc 25 mg cm^−3, read-out: Inhibition diameter): 6.3 ± 0.1 mm; zone of inhibition at 50000 µg/mL (Micrococcus Luteus; Micrococcus luteus, 24 h, solution transferred to disc 50 mg cm^−3, read-out: Inhibition diameter): 6.6 ± 0.2 mm; zone of inhibition at 100000 µg/mL (Micrococcus Luteus; [13]): 7 ± 0.1 mm; zone of inhibition at 200000 µg/mL (Micrococcus Luteus; [14]): 7.6 ± 0.2 mm; zone of inhibition at 400000 µg/mL (Micrococcus Luteus; [15]): 8.1 ± 0.1 mm; Solubility in DMSO (45.1) [6]: ○ (soluble >100 mg cm^−3); Solubility in Dichloromethane (40.7) [6]: ○ (soluble >100 mg cm^−3); Solubility in Diethyl Ether (34.5) [6]: ● (insoluble <33 mg cm^−3); Solubility in Ethanol (59.1) [6]: ○ (soluble >100 mg cm^−3); Solubility in Ethyl Acetate (38.1) [6]: ○ (soluble >100 mg cm^−3); Solubility in Hexane (31.0) [6]: ● (insoluble <33 mg cm^−3); Solubility in Toluene (33.9) [6]: ● (insoluble <33 mg cm^−3)
2 | CC[C@H](C)[C@H](N)C(=O)OC(C)C.O=C(O)c1ccccc1O [[L-IleOiPr][SA], L-isoleucine isopropyl ester salicylate] | 1.6 ± 0.034 | 7.3 ± 0.3 | 13.7 ± 0.7 | - | - | - | - | - | 7.25 | 202.4 | 144.2 | 11.793 ± 0.422 | 8.581 ± 0.015 | 19.281 ± 0.015 | 13.149 ± 0.041 | 29.55 ± 0.041 | 26.5 ± 0.422 | 10.8 ± 0.5 | 12.4 ± 0.4 | ○ (soluble >100 mg cm^−3) | zone of inhibition at 200000 µg/mL (Escherichia coli; [17]): 6.2 ± 0.1 mm; Inhibition diameter (Escherichia coli; [10]): -; zone of inhibition at 600000 µg/mL [2, 18]: 7.3 ± 0.4 mm; zone of inhibition at 800000 µg/mL [2, 19]: 10.5 ± 0.3 mm; Inhibition diameter [2, 11]: -; Inhibition diameter [2, 12]: -; Inhibition diameter (Micrococcus Luteus; [8]): -; Inhibition diameter (Micrococcus Luteus; [9]): -; Inhibition diameter (Micrococcus Luteus; [10]): -; Inhibition diameter (Micrococcus Luteus; [11]): -; Inhibition diameter (Micrococcus Luteus; [12]): -; Solubility in DMSO (45.1) [6]: ○ (soluble >100 mg cm^−3); Solubility in Dichloromethane (40.7) [6]: ○ (soluble >100 mg cm^−3); Solubility in Diethyl Ether (34.5) [6]: ○ (soluble >100 mg cm^−3); Solubility in Ethanol (59.1) [6]: ○ (soluble >100 mg cm^−3); Solubility in Ethyl Acetate (38.1) [6]: ○ (soluble >100 mg cm^−3); Solubility in Hexane (31.0) [6]: ● (insoluble <33 mg cm^−3); Solubility in Toluene (33.9) [6]: ○ (soluble >100 mg cm^−3)
3 | CSCC[C@H](N)C(=O)OC(C)C.O=C(O)c1ccccc1O [[L-MetOiPr][SA], L-methionine isopropyl ester salicylate] | 1.78 ± 0.035 | 16.4 ± 0.3 | 18.8 ± 0.4 | - | - | - | - | - | 7.00 | 205.0 | 161.1 | 6.749 ± 0.533 | 4.437 ± 0.007 | 10.55 ± 0.007 | 7.586 ± 0.046 | 18.04 ± 0.046 | 16 ± 0.533 | 8.1 ± 0.9 | 10.5 ± 1 | ○ (soluble >100 mg cm^−3) | zone of inhibition at 100000 µg/mL (Escherichia coli; Escherichia coli, 24 h, solution transferred to disc 100 mg cm^−3, read-out: Inhibition diameter): 7.8 ± 0.2 mm; zone of inhibition at 200000 µg/mL (Escherichia coli; [17]): 14.4 ± 0.8 mm; zone of inhibition at 200000 µg/mL ([2]; Staphylococcus epidermidis, 24 h, solution transferred to disc 200 mg cm^−3, read-out: Inhibition diameter): 6.6 ± 0.2 mm; zone of inhibition at 400000 µg/mL ([2]; Staphylococcus epidermidis, 24 h, solution transferred to disc 400 mg cm^−3, read-out: Inhibition diameter): 7.1 ± 0.1 mm; zone of inhibition at 600000 µg/mL [2, 18]: 7.5 ± 0.2 mm; zone of inhibition at 800000 µg/mL [2, 19]: 9.2 ± 0.5 mm; zone of inhibition at 100000 µg/mL (Micrococcus Luteus; [13]): 6.1 ± 0.1 mm; zone of inhibition at 200000 µg/mL (Micrococcus Luteus; [14]): 6.3 ± 0.1 mm; zone of inhibition at 400000 µg/mL (Micrococcus Luteus; [15]): 7.3 ± 0.4 mm; Inhibition diameter (Micrococcus Luteus; [8]): -; Inhibition diameter (Micrococcus Luteus; [9]): -; Solubility in DMSO (45.1) [6]: ○ (soluble >100 mg cm^−3); Solubility in Dichloromethane (40.7) [6]: ○ (soluble >100 mg cm^−3); Solubility in Diethyl Ether (34.5) [6]: ○ (soluble >100 mg cm^−3); Solubility in Ethanol (59.1) [6]: ○ (soluble >100 mg cm^−3); Solubility in Ethyl Acetate (38.1) [6]: ○ (soluble >100 mg cm^−3); Solubility in Hexane (31.0) [6]: ● (insoluble <33 mg cm^−3); Solubility in Toluene (33.9) [6]: ○ (soluble >100 mg cm^−3)
